Reference: US6979686B1, “Substituted pyrazoles as p38 kinase inhibitors” (Pharmacia Corporation, priority 2001, dated 2005)
Counter-ions that a name gives are not always drawn. Like-named read-outs stand apart in the source and are kept apart here.

Target: T1, human p38 kinase alpha (Homo sapiens, UniProt Q16539)
T1 construct: GST (N, cleaved yes); made in house; host or cells: E. coli DH10B
Experiment: p38 kinase in vitro assay, phosphorylation of biotinylated PHAS-I with 32P-ATP
Format: biochemical
Conditions: for P38 alpha kinase % inhib @ conc. / P38 alpha kinase % inhib @ conc. (uM) / inhibition at 1 µM: @ 1.0 uM; for P38 alpha kinase IC50, uM or % inhib @ conc. (uM): % inhib: @ 10.0 uM; for inhibition at 1 µM: read-out: P38 alpha kinase % inhib @ conc.

[1] = in vitro P38-alpha kinase inhibition, read-out: P38 alpha kinase IC50
[2] = in vitro P38-alpha kinase, read-out: P38 alpha kinase IC50

T1 sequence (Q16539 whole entry): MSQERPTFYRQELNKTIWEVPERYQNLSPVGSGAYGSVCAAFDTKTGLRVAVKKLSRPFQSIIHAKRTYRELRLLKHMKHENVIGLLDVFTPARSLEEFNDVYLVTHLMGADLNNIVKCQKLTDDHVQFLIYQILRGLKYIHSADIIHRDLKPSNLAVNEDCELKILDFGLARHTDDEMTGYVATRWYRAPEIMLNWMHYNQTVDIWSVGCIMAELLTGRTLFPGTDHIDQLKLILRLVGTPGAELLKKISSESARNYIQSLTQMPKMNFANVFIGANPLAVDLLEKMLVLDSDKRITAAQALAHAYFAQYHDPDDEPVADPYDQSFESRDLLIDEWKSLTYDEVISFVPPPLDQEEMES

Row | IC50 [1] [nM] | Structure (SMILES) | other results
1 | – | O=C(NCCCc1[nH]nc(-c2ccc(F)cc2)c1-c1ccncc1)C1CCCN1 (stereo not shown) [Example B-1232] | P38 alpha kinase % inhib @ conc.: 81.0% @
2 | 120 | CC(C)c1ccc(S(=O)(=O)NC(C)c2[nH]nc(-c3ccc(F)cc3)c2-c2ccncc2)cc1 (stereo not shown) [Example B-0623] | –
3 | – | O=S(=O)(Cc1ccccc1)N1CCC(c2[nH]nc(-c3ccc(F)cc3)c2-c2ccncc2)CC1 [Example B-1374] | IC50 [2]: < 100 nM
4 | 14000 | O=C(Nc1ccc(F)cc1)NC(Cc1ccccc1)c1[nH]nc(-c2ccc(F)cc2)c1-c1ccncc1 (stereo not shown) [Example B-0773] | –
5 | 1600 | Cc1cc(C)c(S(=O)(=O)NCCc2[nH]nc(-c3ccc(F)cc3)c2-c2ccncc2)c(C)c1 [Example B-1067] | –
6 | – | CCCCOc1ccc(NC(=O)NCCc2[nH]nc(-c3ccc(F)cc3)c2-c2ccncc2)cc1 [Example B-0944] | P38 alpha kinase % inhib @ conc. (uM): 45.0% @
7 | 260 | N#Cc1ccccc1S(=O)(=O)NCCc1[nH]nc(-c2ccc(F)cc2)c1-c1ccncc1 [Example B-1078] | –
8 | – | O=C(NCCCc1[nH]nc(-c2ccc(F)cc2)c1-c1ccncc1)Nc1ccccc1 [Example B-1220] | P38 alpha kinase % inhib @ conc.: 81.0% @
9 | – | O=S(=O)(c1cc(Cl)ccc1Cl)N1CCC(c2[nH]nc(-c3ccc(F)cc3)c2-c2ccncc2)CC1 [Example B-1450] | IC50 [2]: 2100 nM
10 | 170 | CC(NS(=O)(=O)c1ccc(CNC(=O)c2ccccc2)s1)c1[nH]nc(-c2ccc(F)cc2)c1-c1ccncc1 (stereo not shown) [Example B-0657] | –
11 | – | C#CCn1nc(N2CCNCC2)c(-c2ccncc2)c1-c1ccc(Cl)cc1 [Example A-318, 1-[5-(4-chlorophenyl)-4-(4-pyridinyl)-1-(2-propynyl)-1H-pyrazol-3-yl]piperazine, trihydrochloride monohydrate] | IC50 (Table 8, 1% DMSO, read-out: p38α Kinase Assay IC50): 290 nM
12 | – | O=C(c1cccc(F)c1)N1CCC(c2[nH]nc(-c3ccc(F)cc3)c2-c2ccncc2)CC1 [Example B-1393] | IC50 [2]: 3170 nM
13 | 20000 | COc1ccc(NC(=O)NC(C)c2[nH]nc(-c3ccc(F)cc3)c2-c2ccncc2)cc1 (stereo not shown) [Example B-0596] | –
14 | 410 | C=CCOC(=O)NC(C)c1[nH]nc(-c2ccc(F)cc2)c1-c1ccncc1 (stereo not shown) [Example B-0534] | –
15 | 800 | O=C(NC(Cc1ccccc1)c1[nH]nc(-c2ccc(F)cc2)c1-c1ccncc1)N1CCOCC1 (stereo not shown) [Example B-0772] | –
16 | – | CS(=O)(=O)NCCc1[nH]nc(-c2ccc(F)cc2)c1-c1ccncc1 [Example B-1024] | P38 alpha kinase % inhib @ conc. (uM): 89.0% @
17 | 470 | CC(C)NC(=O)NC(Cc1ccccc1)c1[nH]nc(-c2ccc(F)cc2)c1-c1ccncc1 (stereo not shown) [Example B-0723] | –
18 | – | CC(=O)OC(C)C(=O)NCCc1[nH]nc(-c2ccc(F)cc2)c1-c1ccncc1 (stereo not shown) [Example B-0993] | P38 alpha kinase % inhib @ conc. (uM): 57.0% @
19 | – | Cc1c(-c2ccncc2)c(-c2ccc(F)cc2)nn1CC(=O)Nc1cccc(F)c1 [Example B-2429] | P38 alpha kinase IC50, uM or % inhib @ conc. (uM): % inhib: 92.0% @
20 | – | Cc1c(-c2ccncc2)c(-c2ccc(F)cc2)nn1CC(=O)N(C)CCc1ccncc1 [Example B-2386] | P38 alpha kinase IC50, uM or % inhib @ conc. (uM): % inhib: 38.0% @
21 | – | NC(=O)NCCc1[nH]nc(-c2ccc(F)cc2)c1-c1ccncc1 [Example B-1030] | P38 alpha kinase % inhib @ conc. (uM): 76.0% @
22 | – | COCC(=O)NCCCc1[nH]nc(-c2ccc(F)cc2)c1-c1ccncc1 [Example B-1171] | P38 alpha kinase % inhib @ conc. (uM): 78.0% @
23 | 1440 | CC(NC(=O)C1CCCC1)c1[nH]nc(-c2ccc(F)cc2)c1-c1ccncc1 (stereo not shown) [Example B-0553] | –
24 | 170 | CC(NS(=O)(=O)c1ccccc1S(C)(=O)=O)c1[nH]nc(-c2ccc(F)cc2)c1-c1ccncc1 (stereo not shown) [Example B-0666] | –

Row | IC50 [1] [nM] | Structure (SMILES) | other results
25 | – | CCOCCCNC(=O)Cn1nc(-c2ccc(F)cc2)c(-c2ccncc2)c1C [Example B-2273] | IC50 [2]: 1920 nM
26 | 1990 | O=S(=O)(Cc1ccccc1)NC(Cc1ccccc1)c1[nH]nc(-c2ccc(F)cc2)c1-c1ccncc1 (stereo not shown) [Example B-0711] | –
27 | – | Cc1cccc(C)c1NC(=O)N1CCC(c2[nH]nc(-c3ccc(F)cc3)c2-c2ccncc2)CC1 [Example B-1380] | IC50 [2]: < 100 nM
28 | 14600 | CC(NC(=O)c1ccc(F)c(C(F)(F)F)c1)c1[nH]nc(-c2ccc(F)cc2)c1-c1ccncc1 (stereo not shown) [Example B-0689] | –
29 | 610 | CC(=O)OCC(=O)NC(Cc1ccccc1)c1[nH]nc(-c2ccc(F)cc2)c1-c1ccncc1 (stereo not shown) [Example B-0829] | –
30 | 560 | CC(C)c1cc(C(C)C)c(C(=O)NCCc2[nH]nc(-c3ccc(F)cc3)c2-c2ccncc2)c(C(C)C)c1 [Example B-1125] | –
31 | – | O=S(=O)(NCCCc1[nH]nc(-c2ccc(F)cc2)c1-c1ccncc1)C(F)(F)F [Example B-1196] | P38 alpha kinase % inhib @ conc. (uM): 74.0% @
32 | – | O=C(NCCCc1[nH]nc(-c2ccc(F)cc2)c1-c1ccncc1)c1cccc(F)c1F [Example B-1347] | IC50 [2]: 21 nM
33 | 660 | CC(=O)Nc1nc(C)c(S(=O)(=O)NCCc2[nH]nc(-c3ccc(F)cc3)c2-c2ccncc2)s1 [Example B-1058] | –
34 | < 100 | C[C@@H](NS(=O)(=O)c1ccc(F)c(Cl)c1)c1[nH]nc(-c2ccc(F)cc2)c1-c1ccncc1 [Example B-0466] | –
35 | – | CC(C)NC(=O)NCCCc1[nH]nc(-c2ccc(F)cc2)c1-c1ccncc1 [Example B-1206] | P38 alpha kinase % inhib @ conc.: 81.0% @
36 | < 100 | CC(NS(=O)(=O)Cc1ccccc1)c1[nH]nc(-c2ccc(F)cc2)c1-c1ccncc1 (stereo not shown) [Example B-0566] | –
37 | – | COc1ccc(S(=O)(=O)NCCc2[nH]nc(-c3ccc(F)cc3)c2-c2ccncc2)cc1OC [Example B-1028] | P38 alpha kinase % inhib @ conc. (uM): 70.0% @
38 | 380 | Cc1cc(C)c(S(=O)(=O)NC(C)c2[nH]nc(-c3ccc(F)cc3)c2-c2ccncc2)c(C)c1 (stereo not shown) [Example B-0616] | –
39 | – | CC(Oc1ccccc1)C(=O)NCCCc1[nH]nc(-c2ccc(F)cc2)c1-c1ccncc1 (stereo not shown) [Example B-1186] | P38 alpha kinase % inhib @ conc. (uM): 83.0% @
40 | 8000 | O=C(NCCc1ccccc1)NC(Cc1ccccc1)c1[nH]nc(-c2ccc(F)cc2)c1-c1ccncc1 (stereo not shown) [Example B-0783] | –
41 | – | COCC(=O)NCc1[nH]nc(-c2ccc(F)cc2)c1-c1ccncc1 [Example B-0003] | inhibition at 1 µM: 70%
42 | 1740 | CC(C)COC(=O)NC(Cc1ccccc1)c1[nH]nc(-c2ccc(F)cc2)c1-c1ccncc1 (stereo not shown) [Example B-0826] | –
43 | – | O=S(=O)(NCCCc1[nH]nc(-c2ccc(F)cc2)c1-c1ccncc1)c1ccc2ccccc2c1 [Example B-1245] | IC50 [2]: 490 nM
44 | – | CCOC(=O)N1CCC(c2[nH]nc(-c3ccc(F)cc3)c2-c2ccncc2)CC1 [Example B-1422] | IC50 [2]: 580 nM
45 | 500 | O=C(NC(Cc1ccccc1)c1[nH]nc(-c2ccc(F)cc2)c1-c1ccncc1)N1CCCC1 (stereo not shown) [Example B-0771] | –
46 | 23 | Cc1ccc(F)cc1S(=O)(=O)NC(C)c1[nH]nc(-c2ccc(F)cc2)c1-c1ccncc1 (stereo not shown) [Example B-0628] | –
47 | 320 | O=C(NCCc1[nH]nc(-c2ccc(F)cc2)c1-c1ccncc1)c1c(F)cccc1F [Example B-1151] | –
48 | – | O=S(=O)(NCCCc1[nH]nc(-c2ccc(F)cc2)c1-c1ccncc1)c1ccc(C(F)(F)F)cc1 [Example B-1264] | IC50 [2]: 320 nM

Row | IC50 [1] [nM] | Structure (SMILES) | other results
49 | 440 | Cc1noc(C)c1C(=O)NC(C)c1[nH]nc(-c2ccc(F)cc2)c1-c1ccncc1 (stereo not shown) [Example B-0706] | –
50 | 2120 | CCNC(=O)NC(C)c1[nH]nc(-c2ccc(F)cc2)c1-c1ccncc1 (stereo not shown) [Example B-0598] | –
51 | – | CC(=O)OCC(=O)NCc1[nH]nc(-c2ccc(F)cc2)c1-c1ccncc1 [Example B-0004] | inhibition at 1 µM: 80%
52 | – | Cc1c(-c2ccncc2)c(-c2ccc(F)cc2)nn1CC(=O)NCCCOC(C)C [Example B-2313] | IC50 [2]: 42300 nM
53 | – | O=S(=O)(NCCCc1[nH]nc(-c2ccc(F)cc2)c1-c1ccncc1)c1ccc(Cl)cc1 [Example B-1238] | IC50 [2]: 140 nM
54 | 1840 | Cc1ccc(C(=O)NCCc2[nH]nc(-c3ccc(F)cc3)c2-c2ccncc2)cc1 [Example B-1122] | –
55 | 80 | COc1ccc(S(=O)(=O)NC(Cc2ccccc2)c2[nH]nc(-c3ccc(F)cc3)c2-c2ccncc2)cc1OC (stereo not shown) [Example B-0767] | –
56 | – | O=C(NCCc1[nH]nc(-c2ccc(F)cc2)c1-c1ccncc1)c1cccnc1 [Example B-1005] | P38 alpha kinase % inhib @ conc. (uM): 58.0% @
57 | 430 | O=C(NCCc1[nH]nc(-c2ccc(F)cc2)c1-c1ccncc1)c1cc(F)ccc1F [Example B-1148] | –
58 | – | O=C(NCCc1[nH]nc(-c2ccc(F)cc2)c1-c1ccncc1)NCc1ccccc1 [Example B-1031] | P38 alpha kinase % inhib @ conc. (uM): 69.0% @
59 | 4600 | CCCCS(=O)(=O)NC(Cc1ccccc1)c1[nH]nc(-c2ccc(F)cc2)c1-c1ccncc1 (stereo not shown) [Example B-0716] | –
60 | 69 | CC(NS(=O)(=O)c1ccc(F)c(Cl)c1)c1[nH]nc(-c2ccc(F)cc2)c1-c1ccncc1 (stereo not shown) [Example B-0643] | –
61 | – | O=C(NCCCc1[nH]nc(-c2ccc(F)cc2)c1-c1ccncc1)c1cc(F)ccc1F [Example B-1349] | IC50 [2]: 37 nM
62 | – | O=C(NCCc1ccccc1)NCCc1[nH]nc(-c2ccc(F)cc2)c1-c1ccncc1 [Example B-1044] | P38 alpha kinase % inhib @ conc. (uM): 94.0% @
63 | – | O=C(O)c1ccccc1S(=O)(=O)NCc1[nH]nc(-c2ccc(F)cc2)c1-c1ccncc1 [Example B-0228] | IC50 [2]: 150 nM
64 | – | O=C(NCCCc1[nH]nc(-c2ccc(F)cc2)c1-c1ccncc1)c1cccc(C(F)(F)F)c1 [Example B-1324] | IC50 [2]: 160 nM
65 | 1230 | CC(NC(=O)c1ccc(F)cc1)c1[nH]nc(-c2ccc(F)cc2)c1-c1ccncc1 (stereo not shown) [Example B-0533] | –
66 | < 100 | O=S(=O)(NCCc1[nH]nc(-c2ccc(F)cc2)c1-c1ccncc1)c1cccc(Br)c1 [Example B-1083] | –
67 | – | O=C(c1cc(F)ccc1F)N1CCC(c2[nH]nc(-c3ccc(F)cc3)c2-c2ccncc2)CC1 [Example B-1402] | IC50 [2]: 120 nM
68 | – | COc1cccc(C(=O)N2CCC(c3[nH]nc(-c4ccc(F)cc4)c3-c3ccncc3)CC2)c1 [Example B-1369] | IC50 [2]: < 100 nM
69 | 360 | CC(NS(=O)(=O)c1ccccc1Cl)c1[nH]nc(-c2ccc(F)cc2)c1-c1ccncc1 (stereo not shown) [Example B-0640] | –
70 | 1030 | CC(NC(=O)N1CCOCC1)c1[nH]nc(-c2ccc(F)cc2)c1-c1ccncc1 (stereo not shown) [Example B-0582] | –
